What all share (conditions): stereoisomer not certain
Series [1] in a line: RP, Merck Supelco Ascentis Express C18, 100 × 2.1 mm, 2 µm, 40 °C, 0.2 mL/min, estimated dead time 1.1 min; A: water + 0.1% formic acid, pH 3; B: acetonitrile + 0.1% formic acid, pH 3; gradient (min/%B) 0/5 2/5 17/99.9 20/99.9.
Assay in series [2]: as above
The source holds these as a separate data set.

Series [3] is described as follows: RP, Merck Supelco Ascentis Express C18, 100 × 2.1 mm, 2 µm, 40 °C, 0.4 mL/min, estimated dead time 0.55 min; A: water + 0.1% formic acid, pH 3; B: acetonitrile + 0.1% formic acid, pH 3; gradient (min/%B) 0/5 2/5 17/99.9 20/99.9.
Assay in series [4]: as above
The source holds these as a separate data set.

Series [5] can be described thus: RP, Merck Supelco Ascentis Express C18, 100 × 2.1 mm, 2 µm, 39 °C, 0.3 mL/min, estimated dead time 0.73 min; A: water + 0.1% formic acid, pH 3; B: acetonitrile + 0.1% formic acid, pH 3; gradient (min/%B) 0/5 2/5 17/99.9 20/99.9.
Series [6] is described as follows: RP, Merck Supelco Ascentis Express C18, 100 × 2.1 mm, 2 µm, 40 °C, 0.25 mL/min, estimated dead time 0.88 min; A: water + 0.1% formic acid, pH 3; B: acetonitrile + 0.1% formic acid, pH 3; gradient (min/%B) 0/5 2/5 17/99.9 20/99.9.
A short description of series [7]: RP, Merck Supelco Ascentis Express C18, 100 × 2.1 mm, 2 µm, 40 °C, 0.35 mL/min, estimated dead time 0.63 min; A: water + 0.1% formic acid, pH 3; B: acetonitrile + 0.1% formic acid, pH 3; gradient (min/%B) 0/5 2/5 17/99.9 20/99.9.

The source of these data is the RepoRT retention time repository (doi:10.1007/s00216-021-03828-0).

Structures can show the parent of a compound that is named as a salt.

Regarding `CC(=O)NCCc1c[nH]c2ccc(O)cc12` [N-ACETYLSEROTONIN], the LC retention time in series [1] is 4.96 min; in series [2], 4.97 min; in series [3], 3.52 min; in series [4], 3.5 min; in series [5], 4.07 min; in series [6], 4.45 min. Besides, the LC retention time in series [7] is 3.77 min.

For the compound `CC(=O)NC(Cc1c[nH]c2ccccc12)C(=O)O` (stereo not drawn) [N-ACETYLTRYPTOPHAN], the LC retention time in series [1] is 6.55 min; in series [2], 6.55 min; in series [3], 5.1 min; in series [4], 5.08 min; in series [5], 5.64 min; in series [6], 6.02 min. Besides, in series [7], the LC retention time was 5.32 min.

Turning to `CSCC[C@H](NC=O)C(=O)O` [N-FORMYL-L-METHIONINE], the LC retention time in series [1] is 3.77 min; in series [2], 3.77 min; in series [3], 1.91 min; in series [4], 1.87 min; in series [5], 2.52 min; in series [6], 3.02 min. The LC retention time in series [7] was 2.16 min.

As to `CCCCC(N)C(=O)O` (stereo not drawn) [NORLEUCINE], the LC retention time in series [1] was 1.62 min; in series [2], 1.63 min; in series [3] it was 0.8 min; in series [4], 0.79 min; in series [5], 1.05 min; in series [6], 1.3 min. In addition, the LC retention time in series [7] is 0.91 min.

As for `CCCCCCCCC=CCCCCCCCC(=O)OCC(O)CO` (stereo not drawn) [OLEOYL-GLYCEROL], the LC retention time is 17.3 min in series [1]; 17.3 min in series [2]; 15.1 min in series [3]; 15.1 min in series [4]; 15.9 min in series [5]; 16.5 min in series [6]. In addition, the LC retention time in series [7] was 15.5 min.

Consider `O=C(O)CCCCCCCCCCCO` [OMEGA-HYDROXYDODECANOATE], for which the LC retention time in series [1] was 9.68 min; in series [2], 9.68 min; in series [3] it was 8.17 min; in series [4], 8.13 min; in series [5] it was 8.71 min; in series [6], 9.11 min. In addition, in series [7], the LC retention time was 8.4 min.

In the case of `O=C(O)Cc1ccc(O)cc1` [P-HYDROXYPHENYLACETATE], the LC retention time in series [1] is 5 min; in series [2], 4.99 min; in series [3], 3.36 min; in series [4], 3.34 min; in series [5], 4.02 min; in series [6] it was 4.43 min. The LC retention time in series [7] was 3.64 min.

On to `CCCCCCCCCCCCCCCC(=O)O` [PALMITATE], for which the LC retention time in series [1] is 17.9 min; in series [2], 17.9 min; in series [3], 15.7 min; in series [4] it was 15.7 min; in series [5] it was 16.5 min; in series [6], 17.1 min. Also, the LC retention time in series [7] was 16.1 min.

As for `CC(C)(CO)C(O)C(=O)NCCC(=O)O` (stereo not drawn) [PANTOTHENATE], the LC retention time in series [1] is 2.7 min; in series [2], 2.71 min; in series [3], 1.38 min; in series [4], 1.36 min; in series [5], 1.79 min; in series [6], 2.15 min. Further, the LC retention time in series [7] was 1.56 min.

On to `Cn1c(=O)[nH]c2ncn(C)c2c1=O` [PARAXANTHINE], for which the LC retention time in series [1] is 3.98 min; in series [2] it was 3.96 min; in series [3], 2.16 min; in series [4], 2.15 min; in series [5], 2.81 min; in series [6], 3.33 min. In series [7], the LC retention time is 2.47 min.

`CCCCCCCCCCCC=CCCCCC(=O)[O-]` [PETROSELINATE]: the LC retention time in series [1] is 18.2 min; in series [2], 18.1 min; in series [3] it was 16.1 min; in series [4] it was 16 min; in series [5], 16.8 min; in series [6], 17.4 min. The LC retention time in series [7] is 16.4 min.

As to `CC(=O)Oc1ccccc1` [PHENYL ACETATE], the LC retention time in series [1] was 5.43 min; in series [2] it was 5.44 min; in series [3] it was 3.95 min; in series [4], 3.93 min; in series [5], 4.5 min; in series [6], 4.9 min. Moreover, the LC retention time in series [7] was 4.18 min.

With `NC(Cc1ccccc1)C(=O)O` (stereo not drawn) [PHENYLALANINE], the LC retention time in series [1] is 2.23 min; in series [2], 2.26 min; in series [3] it was 1.11 min; in series [4], 1.1 min; in series [5], 1.46 min; in series [6], 1.77 min. In addition, in series [7], the LC retention time is 1.26 min.

As to `CC(=O)C1CCC2C3CC=C4CC(OS(=O)(=O)O)CCC4(C)C3CCC12C` (stereo not drawn) [PREGNENOLONE SULFATE], the LC retention time in series [1] is 10.1 min; in series [2] it was 9.94 min; in series [3] it was 8.55 min; in series [4], 8.55 min; in series [5], 9.19 min; in series [6], 9.46 min. For the same compound, the LC retention time in series [7] is 8.79 min.

As for `CC(=O)Oc1cccc(O)c1` [RESORCINOL MONOACETATE], the LC retention time in series [1] was 7.01 min; in series [2], 7 min; in series [3] it was 5.17 min; in series [4] it was 5.14 min; in series [5], 5.94 min; in series [6], 6.34 min. Besides, the LC retention time in series [7] was 5.5 min.

Turning to `Cc1cc2nc3c(=O)[nH]c(=O)nc-3n(CC(O)C(O)C(O)CO)c2cc1C` (stereo not drawn) [RIBOFLAVIN], the LC retention time was 5.39 min in series [1]; 5.38 min in series [2]; 4.24 min in series [3]; 4.23 min in series [4]; 4.65 min in series [5]; 4.94 min in series [6]. In addition, the LC retention time in series [7] was 4.41 min.

Turning to `O=C(C=Cc1ccc(O)c(O)c1)OC(Cc1ccc(O)c(O)c1)C(=O)O` (stereo not drawn) [ROSMARINATE], the LC retention time in series [1] is 6.9 min; in series [2], 6.88 min; in series [3] it was 5.62 min; in series [4], 5.6 min; in series [5], 6.1 min; in series [6], 6.41 min. Besides, the LC retention time in series [7] was 5.82 min.

Consider `CCCCCCSCC(NC(=O)CCC(N)C(=O)O)C(=O)NCC(=O)O` (stereo not drawn) [S-HEXYL-GLUTATHIONE], for which the LC retention time in series [1] is 7.13 min; in series [2] it was 7.14 min; in series [3] it was 5.87 min; in series [4], 5.85 min; in series [5], 6.32 min; in series [6] it was 6.66 min. In series [7], the LC retention time is 6.06 min.

`NC(=O)c1ccccc1O` [SALICYLAMIDE]: the LC retention time in series [1] is 5.82 min; in series [2] it was 5.82 min; in series [3], 4.05 min; in series [4] it was 4.02 min; in series [5], 4.72 min; in series [6], 5.19 min. Further, in series [7], the LC retention time is 4.34 min.
